The text below walks through data of PubChem BioAssay (NCI).

Common to all, as to test: growth of human tumour cells (NCI), 48 h
The test system of assay [1] is A549 NSCLC.
In assay [2] the test system is EKVX NSCLC.
Assay [3] relates to HL-60(TB) leukemia.
Assay [4] deals with KM12 colon.
Assay [5] has as its system M14 melanoma.
Assay [6] concerns MCF7 breast.
Assay [7] concerns MDA-N.
In assay [8] the test system is SNB-19 CNS.
The subject of assay [9] is SR leukemia.
Assay [10] relates to T-47D breast.
The subject of assay [11] is UACC-62 melanoma.
Assay [12] relates to HS 578T breast.
Assay [13] concerns SNB-75 CNS.

Molecules are shown by their SMILES.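 Cultured in 96-well plates, cells were exposed to test compound for 48 hours across five concentrations. GI50 marks 50% less growth. TGI denotes the concentration required for complete inhibition of growth.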 Where a SMILES comes first, the peptide text is derived from it. [ ]: non-standard residue; d: D form. The star is where a group is joined. ξ: configuration not given here. ξF = NC(Cc1ccccc1)C(=O)O; Cbz = O=C(OCc1ccccc1)*; Aib = CC(C)(N)C(=O)O

In the case of `COc1ccc(NC(C)=O)cc1N1C(=O)/C(=C\c2ccccc2)SC1c1cc(OC)c(OC)c(OC)c1` (configuration not stated), the TGI is greater than 100 µM in assay [1]; greater than 100 µM in [2]; 81 µM in assay [3]; 35.8 µM in [4]; greater than 100 µM in [5]; greater than 100 µM in [6]. The TGI in assay [7], in assay [8], in assay [9], in assay [10] and in assay [11] was greater than 100 µM in each case.

As to `CCOC(=O)C1(C/C=C/CCl)CCCC1=O` (configuration not stated), the TGI in [1] was 49.4 µM; in [2], 37.9 µM; in assay [3], greater than 100 µM; in assay [12] it was greater than 100 µM; in [4], 41.2 µM; in assay [5], 38.5 µM. Also, the TGI came out at 48.4 µM in assay [6]; 35.1 µM in assay [7]; 61.2 µM in assay [8]; 61.8 µM in [13]; 51.3 µM in assay [10]; 30.2 µM in [11].

For `Cc1[nH]c(=O)[nH]c(=O)c1/C=C/C(=O)NC(CO)CS(=O)CS(C)=O` (configuration not stated), the TGI in [1] was 332 µM; in [2] it was 66.4 µM; in assay [3], 57.4 µM; in [4], greater than 92.1 µM; in assay [6], 125 µM; in assay [8], 77.9 µM. In addition, the TGI in assay [13] came to 38.8 µM; in [11] it was 56.3 µM.

On to `CC[C@@]1(O)C(=O)OCc2c1cc1n(c2=O)Cc2cc3ccccc3nc2-1`, for which the results for the GI50 in [1] and in assay [4] were 0.0157 µM and 0.292 µM, respectively. Also, the TGI in assay [1] is 2.51 µM; in assay [2], 1.6 µM; in [3] it was 0.0527 µM; in assay [12] it was greater than 100 µM; in assay [4], 5.61 µM; in assay [5] it was 1.8 µM. The TGI in assay [6] was 0.203 µM; in assay [8], greater than 30.9 µM; in [13] it was 0.314 µM; in assay [9] it was 0.0769 µM; in assay [10], 0.635 µM; in [11], 0.0736 µM.

As for `C=C(C)[C@@H]1CCC2=C[C@H](C/C(C)=C\C3=CC(C)=C(O3)[C@H]1O)OC2=O`, the TGI in [1], in assay [2], in assay [3], in assay [12], in assay [4] and in [5] was greater than 100 µM in each case. Further, the TGI in assay [6], in assay [8], in assay [13], in assay [9], in assay [10] and in [11] was greater than 100 µM each time.

Turning to `COC(=O)C1=C(C)N2CCSC2(C)C(C(=O)OC)C1c1cccc(Cl)c1` (configuration not stated), the TGI amounted to 65.3 µM in [1]; 42.1 µM in assay [2]; 49.3 µM in assay [3]; 62.3 µM in assay [4]; 89.3 µM in [5]; 73.2 µM in assay [8]. The TGI in assay [13] was 42.9 µM; in [9] it was 66.7 µM; in assay [11] it was 32.6 µM.

For the molecule `CCOC(=O)CNC(=O)C(Cc1ccccc1)NC(=O)C(C)(C)NC(=O)OCc1ccccc1` (configuration not stated) (Cbz-[Aib]-[ξF]-Gly-OEt), the TGI in assay [1], in [2], in [3], in assay [5], in assay [6] and in assay [7] was greater than 100 µM each time. Besides, the TGI was greater than 100 µM in assay [8], greater than 100 µM in assay [9], greater than 100 µM in assay [10] and 40.9 µM in [11].

As for `C[Si](C)(C)c1ccc(-c2c3ccc(-c4cc(Br)cc(Br)c4)nc3nc3nc(-c4cc(Br)cc(Br)c4)ccc23)cc1`, the TGI in assay [1], in [2], in [4], in assay [5], in [6] and in [7] was greater than 100 µM each time. Further, the TGI in [8], in assay [13], in assay [10] and in [11] was greater than 100 µM throughout.

For the molecule `O=C(NC(Cc1ccc(Br)cc1)C(=O)O)c1ccc(I)cc1` (configuration not stated), the TGI in assay [1], in assay [2], in [3], in assay [4], in assay [6] and in assay [8] was greater than 100 µM throughout. The TGI in assay [13] and in assay [11] was greater than 100 µM throughout.

Consider `NC(=O)C1CCCN1C(=O)C(N)Cc1ccccc1` (stereo not drawn) (H-Phe-Pro-NH2; configuration not given here), for which the TGI in assay [1], in assay [2], in [3], in assay [5], in assay [6] and in assay [7] was greater than 100 µM throughout. Besides, the TGI in assay [8], in [9], in assay [10] and in [11] was greater than 100 µM in each case.

On to `OCC(O)CNc1ncnc2ccccc12` (configuration not stated), for which the TGI in assay [1], in assay [2], in assay [3], in [12], in assay [4] and in [5] was greater than 100 µM throughout. The TGI in [6], in assay [7], in [8], in assay [13], in assay [10] and in [11] was greater than 100 µM in each case.

As to `COc1ccccc1CC(C)N` (configuration not stated), the TGI in assay [1], in [2], in [3], in assay [4], in assay [5] and in assay [8] was greater than 100 µM in each case. The TGI in [13] and in assay [11] was greater than 100 µM in each case.

Consider `CSc1nc(CO)c(CO)n1C`, for which the TGI in assay [1], in assay [2], in assay [3], in assay [4], in [6] and in assay [8] was greater than 100 µM each time. The TGI in [13] and in [11] was greater than 100 µM in each case.
